Experimental findings from patent US20050169883A1, “Preblocking with non-ha gags increases effectiveness of ha conjugated anticancer agents” (priority 2002, published 2005) are described below.

Data set [1] concerns HBL-100 human breast cancer cells. Briefly: In vitro cytotoxicity, MTT dye uptake. Format: cell-based. The note with it: 72 h, HBL-100 cells, 3 days incubation, DOX equivalent. On the procedure:
(§1) HBL-100, a human breast cancer cell-line, was maintained in culture in high glucose D-MEM (Dulbecco's Modified Eagle Medium), which was supplemented with 10% γ-irradiated fetal bovine serum (FBS) and 1% sodium pyruvate; SK-OV-3, a human ovarian cancer cell-line was cultured in D-MEM/F12+10% FBS; HCT-116, a colon tumor cell-line, was maintained in culture in α-MEM (Minimal Essential Medium, Eagle)+10% FBS. 4T1 mouse breast cancer cells and TSU human bladder cancer cells were cultured with 10% calf serum-90% Dulbecco's modified Eagle's medium (DMEM) at 37° C. in 5% CO2 incubator.
(§2) All ^1H NMR spectral data were obtained using an NR-200 FT-NMR spectrometer at 200 MHz (IBM Instruments Inc.). UV-Vis spectra were recorded on a Hewlett Packard 8453 UV-Vis diode array spectrophotometer (Palo Alto, Calif.). HA was characterized by gel permeation chromatography (GPC) was on the following system: Waters 515 HPLC pump, Waters 410 differential refractometer, and Waters™ 486 tunable absorbance detector, Waters Ultrahydrogel 250 and 2000 columns (7.8 mm ID×30 cm) (Milford, Mass.) were used for GPC analysis, the eluent was 150 mM pH 6.5 phosphate buffer/MeOH=80:20 (v/v), and the flow rate was 0.5 in L/min. The system was calibrated with HA standards supplied by Dr. O. Wik (Pharmacia). […] Cell viability in cell culture was determined by thiazoyl blue (MTT) dye uptake protocols measured at 540 nm, which was recorded on a BIO-RAD M-450 microplate reader (Hercules, Calif.). […] Fluorescence images were taken using FITC settings with the 488 nm excitation line and a 522 nm 32 bandpass filter was used to collect the images.
(§3) The cytotoxicity of HA-DOX and HPMA-HA-DOX conjugates against HBL-100, SKOV-3 and HCT-116 cells was determined using a 96-well plate format in quadruplicate with increasing doses range from 0.001-10 mg/mL of DOX equivalent. […] Thus, a 2-μL aliquot of the stock solution was added to each well, and cells were continuously incubated at 37° C., 5% CO2 for 3 days with the test substance, and cell viability was determined using MTT dye uptake at 540 nm. […]
(Tetrazolium dyes change colour on reduction, which living cells bring about.)

The subject of data set [2] is HCT-116 human colon cancer cells. The data set is described as follows: In vitro cytotoxicity, MTT dye uptake. The note with it: 72 h, HCT-116 cells, 3 days incubation, DOX equivalent. Format: cell-based. The procedure: as §1, §2, §3
Data set [3] concerns SK-OV-3 human ovarian cancer cells. The data set is described as follows: In vitro cytotoxicity, MTT dye uptake. It counts as cell-based. The following applies: 72 h, SK-OV-3 cells, 3 days incubation, DOX equivalent. On the procedure:
as §1, §2, §3

Data set [4] has as its system human prostate cancer cell-line DU-145. The data set is described as follows: In vitro cytotoxicity against prostate cancer cell line. It counts as cell-based. The following applies: DU-145 cells, DOX equivalent. An excerpt: The in vitro cytotoxicity of HPMA-HA-DOX with 17% and 36% HA loading against cultured prostate cancer cell line DU-145 was examined. FIG. 8 depicts the in vitro cytotoxicity results of the HPMA-HA-DOX bioconjugates. The cytotoxicity of targeted HPMA-HA-DOX bioconjugates were dramatically higher than non-targeted HPMA-DOX conjugate (Table 2), and 8- to 12-fold higher than the free DOX drug against this prostate cancer cell-line.

The subject of data set [5] is 4T1 mouse breast cancer cells. Briefly: In vivo anti-tumor effect, 4T1 tumor model in BABL/c mice. The following applies: 4 mg/kg Taxol or equivalent, i.p. every other day; versus vehicle and Taxol alone.
Method: The 4T1 mouse breast cancer cells (10^6/site) were subcutaneously injected into either BABL/c mice and allowed to grow for 2 days for the tumor to be established. […] The injection was carried out every other day for two to four weeks. The tumor sizes were measured twice a week. At the end of experiment, the mice were sacrificed and the tumor were harvested, photographed and weighted.
Another data set relates to 4T1 tumors. Briefly: Chondroitin sulfate blocking study, survival of mice bearing 4T1 tumors. It counts as in vivo, mouse. The following applies: experiment period of 33 days; ten i.p. injections every other day. On the procedure: This procedure was carried out every other day for 20 days, and mice received a total of ten injections. The mice were recorded for their survival days and the survival rate was calculated.
This procedure was carried out every other day for 20 days, and mice received a total of ten injections. The mice were recorded for their survival during a 33 day experimental period s and the survival rate was calculated.

The next data set deals with 4T1 breast cancer cells. The data set is described as follows: Spontaneous lymph node metastasis of 4T1 cells injected into foot pad. The note with it: for Weight of lymph node: s.c. three times a week for three weeks, 4 mg/kg Taxol equivalent. Format: in vivo, mouse. On the procedure:
The 4T1 breast cancer cells were injected into foot pat of syngenic BABL/c mice. […] About 0.2 ml of above agents were administrated by subcutaneous (s.c.) injection at the middle of leg three times a week, from where HA-drug could be drained/absorbed into popliteal and inguinal lymph path, in which the spontaneous metastases were expected to take place.
The lymph nodes were carefully dissected out from surrounding fat, measured for the weights and processed for pathology.

The next data set deals with 4T1 cells. Briefly: HA degradation assay. It counts as cell-based, mouse. The procedure:
(§4) The assay was carried out as described (CBU) with some modification. […] In some wells, the media contained 200 μg/ml of KM201 (a neutralization antibody against CD44) or 0.1 mM of chloroquine (an inhibitor of lysosomal enzymes). The media were collected, which contained some of the released and degraded ^3H-HA. […] The media and the supernatant from cells were centrifuged with Centricon 30 (Amicon, Danvers, Mass.). The un-degraded high MW ^3H-HA was retained in the upper chamber.
(§5) This mixture was then separated by filter membrane with MW cut of 30,000 Dalton.
CD44 was examined to determine if it was expressed by 4T1 cells and if it could interact with HA. First, CD44 was detected by Western blotting. […] The binding was specific as it could be inhibited by excess of cold HA (FIG. 14B).

The subject of another data set is TSU cells. The data set is described as follows: HA degradation assay. Format: cell-based, human. The note with it: 48 hours, KM201 200 μg/ml or chloroquine 0.1 mM. On the procedure:
as §4, §5

The subject of data set [6] is HA binding sites in the major organs. Briefly: Chondroitin sulfate pretreatment, organ and tumor up-take of 3H-HA. It counts as in vivo, mouse. On the procedure: The tumors and organs were collected, weighted, and homogenized with ultrasound to make tissue homogenates. The protein concentration was normalized to 0.1 mg/ml. Then, 300 μl of tissue homogenates were mixed with 2.5 ml of scintillation solution and counted for the radioactivity. […] Twenty-four hours later, the mice were sacrificed and the homogenates of tumors and organs were counted for the radioactivity.
This approach did reduce the HA taken up by liver and increased the amount of HA accumulated in tumors.
One day later, the tumors and organs were collected, weighed, homogenized with ultrasound to make tissue lysate at a protein concentration of 0.1 mg/ml. Then, 300 μl of tissue lysate were mixed with 2.5 ml of scintillation solution and counted for the radioactivity.

As usually defined, the IC50 is the point on the concentration scale where inhibition reaches its midpoint. For the molecule `COc1cccc2c1C(=O)c1c(O)c3c(c(O)c1C2=O)C[C@@](O)(C(=O)CO)C[C@@H]3O[C@H]1C[C@H](N)[C@H](O)[C@H](C)O1` [DOX, Doxorubicin], the IC50 in data set [1] was 0.15 µM; in [2] it was 0.35 µM; in [3] it was 0.92 µM; in [4], 31.5 µM.

`CC(=O)O[C@H]1C(=O)[C@@]2(C)[C@H]([C@H](OC(=O)c3ccccc3)[C@]3(O)C[C@H](OC(=O)[C@H](O)[C@@H](NC(=O)c4ccccc4)c4ccccc4)C(C)=C1C3(C)C)[C@]1(OC(C)=O)CO[C@@H]1C[C@@H]2O` [Taxol]: in [5], the “size of 4T1 tumors” value is “did not reduce the size”. The same molecule yielded a survival rate with 4T1 tumors of 60%. For the same molecule, the “Inhibition ratio (%)” value in the data set with 4T1 breast cancer cells (inguinal lymph node metastasis) was 31.8%; in the data set on 4T1 breast cancer cells (popliteal lymph node metastasis), −1.7%. Moreover, the “Weight of lymph node” value in the data set on 4T1 breast cancer cells (inguinal lymph node) worked out at 9.00 ± 0.79; in the data set on 4T1 breast cancer cells (popliteal lymph node), 46.70 ± 5.05.

`CCN(CC)CCCC(C)Nc1ccnc2cc(Cl)ccc12` (stereo not shown) [chloroquine]: the “degradation of high MW 3H-HA by cells” value is reported as “reduce the degraded ^3H-HA” in the data set on 4T1 cells (48 hours, KM201 200 μg/ml or chloroquine 0.1 mM) and “reduce the degraded ^3H-HA” with TSU cells. The “CD44 mediated degradation of 3H-HA” value with 4T1 cells (72 hours) is “inhibited”.

For chondroitin sulfate, the “up-take of HA in the major organs” value in data set [6] (chondroitin sulfate i.v. two hours before 3H-HA, 24 hours) was “reduced their up-take of HA”. Besides, in data set [6] (chondroitin sulfate pretreatment), the “3H-HA in tumors versus untreated mice” value is given as “higher”. The “amount of 3H-HA in the liver versus vehicle alone” value in [6] (liver monitored for two days) is “much lower”.
